Source: patent publication US20120009280A1, “METHOD OF REDUCING THE RATE OF DEGRADATION OF A BIOLOGICAL MATERIAL” (Bio-Energy Ingredients Limited, priority 2009, published 2012)

Tests used:
total micro-organism [1] = test: Total microbial (plate) count of spent brewer's / wet distiller's grains stored at ambient temperature; type: cell-based; design: total microbial count: unit: cfu/gram
Excerpt: Samples of spent brewer's grains were drawn from the discharge line of a brewery in South Africa. The samples, packed in dry ice in a cold box, were transported over a distance of approximately 40 kilometres to a laboratory. At the laboratory, the samples were thoroughly mixed and initially split into a first portion (Portion 1) and a second portion (Portion 2). The second portion was about twice the size of the first. Portion 1 was left untreated. Material produced from Portion 1 and Portion 2 is designated below using the code “AR” (as received).
Portion 2 was placed on a clean, standard, laboratory screen deck with 1.4 mm apertures supported from below. As much water as possible was manually squeezed out with a clean flat plastic disc and the sample was then manually remixed after the squeezing. The squeezed material was then split into a third portion (Portion 3) and a fourth portion (Portion 4) of approximately the same size. Material produced from Portion 3 and Portion 4 is designated below using the code “SO” (squeezed).
Portion 4 was added to a high speed kitchen food-shredder and shredded for about two minutes. The shredded material was then returned to the 1.4 mm aperture screen and squeezed again, as described above, and manually remixed again after the second squeezing to produce a shredded and squeezed portion (Portion 5). Material produced from Portion 5 is designated below using the code “SH” (shredded).
(§1) Samples of Portion 1 (“AR”), Portion 3 (“SO”) and Portion 5 (“SH”) were then delivered to a microbiological testing facility about 15 kilometres from the treatment laboratory. Each was tested for initial total microbial, yeast and mould counts, respectively.
(§2) Separate untreated samples were similarly stored under insect-proof screens at ambient temperature for seven days (as shown in Tables 1 and 2). During the trial period the ambient temperature ranged from 11 to 33 degrees C.
After exposure to the environment for seven days, all of the samples were tested at a South African National Accreditation System (SANAS) approved microbiological testing facility. Each was tested for total micro-organism, yeast and mould counts to determine the affect of the various treatments.
Samples of spent brewer's grains were drawn from the discharge line of a brewery in South Africa.
(§3) At the laboratory, the samples were thoroughly mixed and initially split into a first portion (Portion 1) and a second portion (Portion 2). Portion 1 was left untreated. A sample of Portion 1, was delivered immediately to a microbiological testing facility about 15 kilometres away from the treatment laboratory and was tested for initial total microbial, yeast and mould counts, respectively.
Samples from Portion 2 were subjected to treatment with varying amounts of a powdered, commercially-available calcium oxide containing approximately 94% calcium oxide (CaO) as shown in Table 32. The treatments varied from 2.5 to 10% (w/w) calcium oxide addition. The samples were stored in batches (according to the calcium oxide treatment) under insect-proof screens at ambient temperature for fifty six days. […] During the trial period the ambient temperature ranged from 10 to 30 degrees C. As this period was the southern hemisphere spring/early summer, the humidity as well as ambient temperatures varied widely.
(§4) Samples from each treatment were drawn every seven days. No further calcium oxide treatment or agitation took place after the initial mix. In each case the entire sample was isolated and delivered to the microbiological testing facility.
(§5) In this trial the same source of wet distiller's grains (again with now partial water removal prior to treatment) was treated.
as §5

total micro-organism [2] = test: as above; type: cell-based; conditions: dose 10% w/w; distiller's grains not de-watered, Examples 16-18
mould = test: Mould count of spent brewer's / wet distiller's grains stored at ambient temperature; type: cell-based
Procedure: as §1, §2
(§6) The free moisture content on the initial spent brewer's grains was determined to be 78.1% m/m. After exposure to the environment for seven days, all of the samples were tested at a South African National Accreditation System (SANAS) approved microbiological testing facility. Each was tested for total micro-organism, yeast and mould counts to determine the affect of the various treatments. A similar procedure to that described in K. A. Rosentrater et al, Food Bioprocess Technol (2008) was used for the microbiological evaluation.
as §3, with “respectively. No water removal prior to treatment was done in this experiment as was the case in Example 8 wherein a similar wet material was partially dewatered by pressing and the residue treated with 10% (w/w/) calcium oxide.” for “respectively.”
Samples from Portion 2 were subjected to treatment with varying amounts of a powdered, commercially-available calcium oxide containing approximately 94% calcium oxide (CaO) as shown in Table 32. […] The samples were stored in batches (according to the calcium oxide treatment) under insect-proof screens at ambient temperature for fifty six days. Separate untreated samples were similarly stored under insect-proof screens at ambient temperature for a total of 56 days. During the trial period the ambient temperature ranged from 10 to 30 degrees C. As this period was the southern hemisphere spring/early summer, the humidity as well as ambient temperatures varied widely.
as §6, with “79.4%” for “78.1%”
as §4
The calcium oxide treatment trial described in Example 9 wherein wet distiller's grains were treated with 2.5%, 5% and 10.0% calcium oxide, respectively, versus untreated material was repeated using lower doses of calcium oxide. In this trial the same source of wet distiller's grains (again with now partial water removal prior to treatment) was treated. Also, the same protocol as described in Example 9 was applied, but at lower doses of calcium oxide i.e. 0.5%, 1.0%, 1.5%, 2.0% and 2.5%, respectively, versus untreated material.
In this trial the same source of wet distiller's grains (again with now partial water removal prior to treatment) was treated. Also, the same protocol as described in Example 9 was applied.

yeast = test: Yeast count of spent brewer's / wet distiller's grains stored at ambient temperature; type: cell-based
[3] = pH of suspensions of grain samples in distilled water or PBS; conditions: 1% (w/w) in distilled water
Procedure: The untreated sample (A) was compared visually against the corresponding quicklime-treated sample (B).
On Day 7, 10 g amounts of each sample were suspended in either 90 ml PBS or 90 ml sterile distilled water and shaken for 10 minutes. The pH of each suspension was then measured and compared.
On Day 9, 10 g of each sample was suspended in 90 ml PBS and shaken for 10 minutes. The pH was measured.

[4] = dose 15% w/w, distiller's grains not de-watered, Examples 16-18

## [Ca+2].[O-]CC(O)CO.[O-]CC(O)CO [Ca-DGO (g)]
Total micro-organism [1]; [4]
  preservation time with total microbial counts <100 cfu/g: ≧9 weeks
  preservation time with total microbial counts <1000 cfu/g: ≧9 weeks
Total micro-organism [2]
  preservation time with total microbial counts <100 cfu/g: ≧4 weeks
  preservation time with total microbial counts <1000 cfu/g: ≧4 weeks

## [Ca+2].[O-]CC(O)CO.[O-]CC(O)CO [Ca-DGO powder + granules (1:1)]
Total micro-organism [1]; dose 15% (w/w), week 0
  Total plate count: 540 cfu/gram
Total micro-organism [1]; dose 15% (w/w), week 1
  Total plate count: 50 cfu/gram
Total micro-organism [1]; dose 15% (w/w), week 2
  Total plate count: 710 cfu/gram
Total micro-organism [1]; dose 15% (w/w), week 3
  Total plate count: 70 cfu/gram
Total micro-organism [1]; dose 15% (w/w), week 4
  Total plate count: <10 cfu/gram
Total micro-organism [1]; dose 15% (w/w), week 6
  Total plate count: 150 cfu/gram
Total micro-organism [1]; dose 15% (w/w), week 7
  Total plate count: 660 cfu/gram
Total micro-organism [1]; dose 15% (w/w), week 8
  Total plate count: 4200 cfu/gram
Total micro-organism [1]; dose 15% (w/w), week 9
  Total plate count: 45000 cfu/gram
mould; dose 15% (w/w), week 1
  Mould Count: <10 cfu/gram
mould; dose 15% (w/w), week 2
  Mould Count: <10 cfu/gram
mould; dose 15% (w/w), week 3
  Mould Count: <10 cfu/gram
mould; dose 15% (w/w), week 4
  Mould Count: <10 cfu/gram
mould; dose 15% (w/w), week 5
  Mould Count: <10 cfu/gram
mould; dose 15% (w/w), week 6
  Mould Count: <10 cfu/gram
mould; dose 15% (w/w), week 7
  Mould Count: <10 cfu/gram
mould; dose 15% (w/w), week 8
  Mould Count: <10 cfu/gram
mould; dose 15% (w/w), week 9
  Mould Count: <10 cfu/gram
yeast; dose 15% (w/w), week 1
  Yeast Count: <10 cfu/gram
yeast; dose 15% (w/w), week 2
  Yeast Count: <10 cfu/gram
yeast; dose 15% (w/w), week 3
  Yeast Count: <10 cfu/gram
yeast; dose 15% (w/w), week 4
  Yeast Count: <10 cfu/gram
yeast; dose 15% (w/w), week 5
  Yeast Count: 20 cfu/gram
yeast; dose 15% (w/w), week 6
  Yeast Count: <10 cfu/gram
yeast; dose 15% (w/w), week 7
  Yeast Count: <10 cfu/gram
yeast; dose 15% (w/w), week 8
  Yeast Count: <10 cfu/gram
yeast; dose 15% (w/w), week 9
  Yeast Count: <10 cfu/gram
[3]; dose 15% (w/w), week 1
  pH: 11.47
[3]; dose 15% (w/w), week 2
  pH: 7.57
[3]; dose 15% (w/w), week 3
  pH: 7.88
[3]; dose 15% (w/w), week 4
  pH: 9.29
[3]; dose 15% (w/w), week 5
  pH: 6.78
[3]; dose 15% (w/w), week 6
  pH: 9.27
[3]; dose 15% (w/w), week 7
  pH: 7.23
[3]; dose 15% (w/w), week 8
  pH: 9.18
[3]; dose 15% (w/w), week 9
  pH: 8.93

## [Ca+2].[O-]CC(O)CO.[O-]CC(O)CO [calcium diglyceroxide granules, calcium diglyceroxide]
Total micro-organism [1]; granules 10% (w/w), 2 week time point
  total microbial count: below 10
Total micro-organism [1]; granules 10% (w/w), 3 week time point
  total microbial count: 540
Total micro-organism [1]; granules 10% (w/w), 4 week time point
  total microbial count: 60
Total micro-organism [1]; granules 10% (w/w), 5 week time point
  total microbial count: 650
Total micro-organism [1]; granules 10% (w/w), Example 18
  effective period: ~7 weeks

## [Ca+2].[O-]CC(O)CO.[O-]CC(O)CO [Ca-DGO (p)]
Total micro-organism [1]; [4]
  preservation time with total microbial counts <10 cfu/g: ≧9 weeks
  preservation time with total microbial counts <100 cfu/g: ≧9 weeks
  preservation time with total microbial counts <1000 cfu/g: ≧9 weeks
Total micro-organism [2]
  preservation time with total microbial counts <100 cfu/g: ≧2 weeks
  preservation time with total microbial counts <1000 cfu/g: ≧3 weeks

## [Ca+2].[O-]CC(O)CO.[O-]CC(O)CO [Ca-DGO powder]
Total micro-organism [1]; dose 15% (w/w), week 0
  Total plate count: 40 cfu/gram
Total micro-organism [1]; dose 15% (w/w), week 1
  Total plate count: 80 cfu/gram
Total micro-organism [1]; dose 15% (w/w), week 3
  Total plate count: 100 cfu/gram
Total micro-organism [1]; dose 15% (w/w), week 4
  Total plate count: 10 cfu/gram
Total micro-organism [1]; dose 15% (w/w), week 6
  Total plate count: 50 cfu/gram
Total micro-organism [1]; dose 15% (w/w), week 7
  Total plate count: 40 cfu/gram
Total micro-organism [1]; dose 15% (w/w), week 8
  Total plate count: 70 cfu/gram
Total micro-organism [1]; dose 15% (w/w), week 9
  Total plate count: 10 cfu/gram
mould; dose 15% (w/w), week 0
  Mould Count: <10 cfu/gram
mould; dose 15% (w/w), week 1
  Mould Count: <10 cfu/gram
mould; dose 15% (w/w), week 2
  Mould Count: <10 cfu/gram
mould; dose 15% (w/w), week 3
  Mould Count: <10 cfu/gram
mould; dose 15% (w/w), week 4
  Mould Count: <10 cfu/gram
mould; dose 15% (w/w), week 5
  Mould Count: <10 cfu/gram
mould; dose 15% (w/w), week 6
  Mould Count: <10 cfu/gram
mould; dose 15% (w/w), week 7
  Mould Count: <10 cfu/gram
mould; dose 15% (w/w), week 8
  Mould Count: <10 cfu/gram
mould; dose 15% (w/w), week 9
  Mould Count: 350 cfu/gram
yeast; dose 15% (w/w), week 0
  Yeast Count: <10 cfu/gram
yeast; dose 15% (w/w), week 1
  Yeast Count: <10 cfu/gram
yeast; dose 15% (w/w), week 2
  Yeast Count: <10 cfu/gram
yeast; dose 15% (w/w), week 3
  Yeast Count: <10 cfu/gram
yeast; dose 15% (w/w), week 4
  Yeast Count: <10 cfu/gram
yeast; dose 15% (w/w), week 5
  Yeast Count: <10 cfu/gram
yeast; dose 15% (w/w), week 6
  Yeast Count: <10 cfu/gram
yeast; dose 15% (w/w), week 7
  Yeast Count: <10 cfu/gram
yeast; dose 15% (w/w), week 8
  Yeast Count: <10 cfu/gram
yeast; dose 15% (w/w), week 9
  Yeast Count: <10 cfu/gram
[3]; dose 15% (w/w), week 0
  pH: 11.50
[3]; dose 15% (w/w), week 1
  pH: 11.73
[3]; dose 15% (w/w), week 2
  pH: 7.33
[3]; dose 15% (w/w), week 3
  pH: 7.38
[3]; dose 15% (w/w), week 4
  pH: 8.83
[3]; dose 15% (w/w), week 6
  pH: 9.18
[3]; dose 15% (w/w), week 8
  pH: 9.14
[3]; dose 15% (w/w), week 9
  pH: 9.07

## Ca(OH2
Total micro-organism [1]; 6.6% (w/w) powder, week 1
  Total plate count: 420 cfu/gram
Total micro-organism [1]; 6.6% (w/w) powder, week 2
  Total plate count: 140 cfu/gram
Total micro-organism [1]; 6.6% (w/w) powder, week 3
  Total plate count: 640 cfu/gram
Total micro-organism [1]; 6.6% (w/w) powder, week 4
  Total plate count: 170 cfu/gram
Total micro-organism [1]; 6.6% (w/w) powder, week 5
  Total plate count: 20 cfu/gram
mould; 6.6% (w/w) powder, week 1
  Mould Count: 10 cfu/gram
mould; 6.6% (w/w) powder, week 2
  Mould Count: 10 cfu/gram
mould; 6.6% (w/w) powder, week 3
  Mould Count: 10 cfu/gram
mould; 6.6% (w/w) powder, week 4
  Mould Count: 10 cfu/gram
mould; 6.6% (w/w) powder, week 5
  Mould Count: 10 cfu/gram
yeast; 6.6% (w/w) powder, week 1
  Yeast Count: 10 cfu/gram
yeast; 6.6% (w/w) powder, week 2
  Yeast Count: 10 cfu/gram
yeast; 6.6% (w/w) powder, week 3
  Yeast Count: 10 cfu/gram
yeast; 6.6% (w/w) powder, week 4
  Yeast Count: 120 cfu/gram
yeast; 6.6% (w/w) powder, week 5
  Yeast Count: 10 cfu/gram
[3]; 6.6% (w/w) powder, week 1
  pH: 11.55
[3]; 6.6% (w/w) powder, week 2
  pH: 11.26
[3]; 6.6% (w/w) powder, week 3
  pH: 12.10
[3]; 6.6% (w/w) powder, week 4
  pH: 8.23
[3]; 6.6% (w/w) powder, week 5
  pH: 11.47
